This is an account of results in PubChem BioAssay AID212 (DTP/NCI, 2004).

This assay deals with BDF1 mice, colon carcinoma 38 sc, T/C %. As to the kind of experiment: NCI In Vivo Anticancer Drug Screen. Data for tumor model Colon Carcinoma 38 (subcutaneous) in B6D2F1 (BDF1) mice. A digest of the protocol: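 Transplantable tumor in mice; compound-treated vs vehicle-dosed controls. Measured survival or tumor size; value = T ÷ C.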
The mark [1] stands for this setting: endpoint: median tumor weight (est.), dose: 12.5 mg/kg/injection, schedule: Q07DX002 (ip), vehicle: saline, higher = larger tumour.
[2] abbreviates: endpoint: median tumor weight (est.), dose: 25.0 mg/kg/injection, schedule: Q07DX002 (ip), vehicle: saline, higher = larger tumour.
Setting [3] is: endpoint: median tumor weight (est.), dose: 50.0 mg/kg/injection, schedule: Q07DX002 (ip), vehicle: saline, higher = larger tumour.
The mark [4] stands for this setting: endpoint: median tumor weight (est.), dose: 100.0 mg/kg/injection, schedule: Q07DX002 (ip), vehicle: saline, higher = larger tumour.
The mark [5] stands for this setting: endpoint: median tumor weight (est.), dose: 100.0 mg/kg/injection, schedule: Q07DX002 (ip), vehicle: saline with Tween-80, higher = larger tumour.
Setting [6] is: endpoint: median tumor weight (est.), dose: 200.0 mg/kg/injection, schedule: Q07DX002 (ip), vehicle: saline with Tween-80, higher = larger tumour.
The mark [7] stands for this setting: endpoint: median tumor weight (est.), dose: 12.5 mg/kg/injection, schedule: Q07DX002 (ip), vehicle: saline with Tween-80, higher = larger tumour.
Setting [8] is: endpoint: median tumor weight (est.), dose: 25.0 mg/kg/injection, schedule: Q07DX002 (ip), vehicle: saline with Tween-80, higher = larger tumour.
Setting [9] is: endpoint: median tumor weight (est.), dose: 50.0 mg/kg/injection, schedule: Q07DX002 (ip), vehicle: saline with Tween-80, higher = larger tumour.

Structures are written as SMILES. Where “and” joins values, the source holds several entries; their conditions need not be identical. Equal entries are not always repeated. Records with an inconclusive call do not appear.

For the molecule `C=C(C)C1C2CC3(C)C4(CO4)C4OC4C3(O)C1C(=O)O2` (stereo not drawn), the T/C runs as follows: (endpoint: median tumor weight (est.), dose: 0.38 mg/kg/injection, schedule: Q07DX002 (ip), vehicle: Klucel (hydroxypropylcellulose) (HPC), higher = larger tumour) 81 % of control; (endpoint: median tumor weight (est.), dose: 0.75 mg/kg/injection, schedule: Q07DX002 (ip), vehicle: Klucel (hydroxypropylcellulose) (HPC), higher = larger tumour) 104 % of control; (endpoint: median tumor weight (est.), dose: 1.5 mg/kg/injection, schedule: Q07DX002 (ip), vehicle: Klucel (hydroxypropylcellulose) (HPC), higher = larger tumour) 112 % of control.

`NC1=NC(O)C=C1` (stereo not drawn): the T/C is 90 % of control (endpoint: median tumor weight (est.), dose: 7.5 mg/kg/injection, schedule: Q07DX002 (ip), vehicle: saline, higher = larger tumour); 103 % of control (endpoint: median tumor weight (est.), dose: 15.0 mg/kg/injection, schedule: Q07DX002 (ip), vehicle: saline, higher = larger tumour); 100 % of control (endpoint: median tumor weight (est.), dose: 30.0 mg/kg/injection, schedule: Q07DX002 (ip), vehicle: saline, higher = larger tumour); 87 % of control (endpoint: median tumor weight (est.), dose: 60.0 mg/kg/injection, schedule: Q07DX002 (ip), vehicle: saline, higher = larger tumour).

On to `C=C1C(=O)OC2CC(C)C3C4OC4C(O)C3(C)C(O)C12` (stereo not drawn), for which the T/C runs as follows: (endpoint: median tumor weight (est.), dose: 6.25 mg/kg/injection, schedule: Q07DX002 (ip), vehicle: saline, higher = larger tumour) 115 % of control; under setting [1], 118 % of control; under setting [2], 116 % of control; under setting [3], 80 % of control; under setting [4], 155 % of control.

For `COc1nc(=O)n(C2C=CC(=O)O2)cc1F` (stereo not drawn), the T/C was 117 % of control under setting [1], 113 % of control under setting [2] and 109 % of control under setting [3].

For the molecule `Nc1ccc2ccc(NS(=O)(=O)N3CCCCC3)cc2c1`, the T/C runs as follows: under setting [5], 120 % of control; under setting [6], 99 % of control; (endpoint: median tumor weight (est.), dose: 400.0 mg/kg/injection, schedule: Q07DX002 (ip), vehicle: saline with Tween-80, higher = larger tumour) 124 % of control.

With `O=C1NC(=O)/C(=C/C=C/c2ccccc2)S1`, the T/C was 70 % of control (endpoint: median tumor weight (est.), dose: 1.81 mg/kg/injection, schedule: Q07DX002 (ip), vehicle: saline with Tween-80, higher = larger tumour); 198 % of control (endpoint: median tumor weight (est.), dose: 3.62 mg/kg/injection, schedule: Q07DX002 (ip), vehicle: saline with Tween-80, higher = larger tumour); 84 % of control (endpoint: median tumor weight (est.), dose: 7.25 mg/kg/injection, schedule: Q07DX002 (ip), vehicle: saline with Tween-80, higher = larger tumour); 117 % of control and 100 % of control under setting [7]; 85 % of control (endpoint: median tumor weight (est.), dose: 14.5 mg/kg/injection, schedule: Q07DX002 (ip), vehicle: saline with Tween-80, higher = larger tumour); 65 % of control and 80 % of control under setting [8]. For the same molecule, the T/C is, setting by setting: (endpoint: median tumor weight (est.), dose: 29.0 mg/kg/injection, schedule: Q07DX002 (ip), vehicle: saline with Tween-80, higher = larger tumour) 69 % of control; (endpoint: median tumor weight (est.), dose: 58.0 mg/kg/injection, schedule: Q07DX002 (ip), vehicle: saline with Tween-80, higher = larger tumour) 78 % of control; under setting [5], 175 % of control.

Take `CC1OC(OC2CC(O)(C(=O)CO)Cc3c(O)c4c(c(O)c32)C(=O)c2ccccc2C4=O)CC(N)C1O` (stereo not drawn): the T/C is, setting by setting: (endpoint: median survival time, dose: 1.2 mg/kg/injection, schedule: Q07DX003 (iv), vehicle: saline, higher = longer survival) 108 % of control; (endpoint: median survival time, dose: 1.9 mg/kg/injection, schedule: Q07DX003 (iv), vehicle: saline, higher = longer survival) 111 % of control; (endpoint: median tumor weight (est.), dose: 0.12 mg/kg/injection, schedule: Q07DX002 (ip), vehicle: water, higher = larger tumour) 120 % of control; (endpoint: median tumor weight (est.), dose: 0.25 mg/kg/injection, schedule: Q07DX002 (ip), vehicle: saline, higher = larger tumour) 113 % of control; (endpoint: median tumor weight (est.), dose: 0.25 mg/kg/injection, schedule: Q07DX002 (ip), vehicle: water, higher = larger tumour) 90 % of control; (endpoint: median tumor weight (est.), dose: 0.5 mg/kg/injection, schedule: Q07DX002 (ip), vehicle: saline, higher = larger tumour) 104 % of control. Besides, the T/C runs as follows: (endpoint: median tumor weight (est.), dose: 0.5 mg/kg/injection, schedule: Q07DX002 (ip), vehicle: water, higher = larger tumour) 78 % of control; (endpoint: median tumor weight (est.), dose: 1.0 mg/kg/injection, schedule: Q07DX002 (ip), vehicle: saline, higher = larger tumour) 69 % of control; (endpoint: median tumor weight (est.), dose: 1.0 mg/kg/injection, schedule: Q07DX002 (ip), vehicle: water, higher = larger tumour) 23 % of control; (endpoint: median tumor weight (est.), dose: 2.0 mg/kg/injection, schedule: Q07DX002 (ip), vehicle: saline, higher = larger tumour) 72 % of control.

On to `CNC(=O)OCc1c(COC(=O)NC)c(-c2ccccc2)n(C)c1-c1ccccc1`, for which the T/C (endpoint: median tumor weight (est.), dose: 100.0 mg/kg/injection, schedule: Q07DX002 (ip), vehicle: distilled water + Tween-80, higher = larger tumour) was 62 % of control.

Consider `CC(=O)C1(O)Cc2c(O)c3c(c(O)c2C(OC2CC(N)C(O)C(C)O2)C1)C(=O)c1ccccc1C3=O` (stereo not drawn), for which the T/C is, setting by setting: (endpoint: median survival time, dose: 1.4 mg/kg/injection, schedule: Q07DX002 (iv), vehicle: saline, higher = longer survival) 118 % of control; (endpoint: median tumor weight (est.), dose: 0.37 mg/kg/injection, schedule: Q07DX002 (ip), vehicle: saline, higher = larger tumour) 66 % of control; (endpoint: median tumor weight (est.), dose: 0.75 mg/kg/injection, schedule: Q07DX002 (ip), vehicle: saline, higher = larger tumour) 67 % of control.

In the case of `C=CC(C)(C)n1cc(C2=C(O)C(=O)C(c3cn(C(C)(C)C=C)c4ccccc34)=C(O)C2=O)c2ccccc21`, the T/C was 67 % of control and 79 % of control (endpoint: median tumor weight (est.), dose: 5.0 mg/kg/injection, schedule: Q07DX002 (ip), vehicle: Klucel (hydroxypropylcellulose) (HPC), higher = larger tumour); 66 % of control and 82 % of control (endpoint: median tumor weight (est.), dose: 10.0 mg/kg/injection, schedule: Q07DX002 (ip), vehicle: Klucel (hydroxypropylcellulose) (HPC), higher = larger tumour); 87 % of control (endpoint: median tumor weight (est.), dose: 20.0 mg/kg/injection, schedule: Q07DX002 (ip), vehicle: DMSO, higher = larger tumour); 101 % of control (endpoint: median tumor weight (est.), dose: 40.0 mg/kg/injection, schedule: Q07DX002 (ip), vehicle: DMSO, higher = larger tumour); 41 % of control (endpoint: median tumor weight (est.), dose: 80.0 mg/kg/injection, schedule: Q07DX002 (ip), vehicle: DMSO, higher = larger tumour); 79 % of control and 81 % of control (endpoint: median tumor weight (est.), dose: 80.0 mg/kg/injection, schedule: Q07DX002 (ip), vehicle: Klucel (hydroxypropylcellulose) (HPC), higher = larger tumour). Further, the T/C (endpoint: median tumor weight (est.), dose: 160.0 mg/kg/injection, schedule: Q07DX002 (ip), vehicle: Klucel (hydroxypropylcellulose) (HPC), higher = larger tumour) was 57 % of control and 70 % of control.

For `CC1c2ccccc2Cn2cc3c(c21)C(=O)c1cccc(OP(=O)(O)OCc2ccccc2)c1C3=O` (stereo not drawn), the T/C was 62 % of control (endpoint: median tumor weight (est.), dose: 0.5 mg/kg/injection, schedule: Q01DX012 (ip), vehicle: saline with Tween-80, higher = larger tumour); 73 % of control (endpoint: median tumor weight (est.), dose: 1.0 mg/kg/injection, schedule: Q01DX012 (ip), vehicle: saline with Tween-80, higher = larger tumour); 23 % of control (endpoint: median tumor weight (est.), dose: 2.0 mg/kg/injection, schedule: Q01DX012 (ip), vehicle: saline with Tween-80, higher = larger tumour); 28 % of control (endpoint: median tumor weight (est.), dose: 4.0 mg/kg/injection, schedule: Q01DX012 (ip), vehicle: saline with Tween-80, higher = larger tumour).

On to `N#C[C@H](OC1OC(COC2OC(CO)C(O)C(O)C2O)C(O)C(O)C1O)c1ccccc1` (stereo partly drawn), for which the T/C under setting [3] was 76 % of control; the T/C (endpoint: median tumor weight (est.), dose: 50.0 mg/kg/injection, schedule: Q07DX002 (ip), vehicle: water, higher = larger tumour) is 70 % of control; the T/C under setting [4] is 103 % of control; the T/C (endpoint: median tumor weight (est.), dose: 100.0 mg/kg/injection, schedule: Q07DX002 (ip), vehicle: water, higher = larger tumour) was 70 % of control; the T/C (endpoint: median tumor weight (est.), dose: 200.0 mg/kg/injection, schedule: Q07DX002 (ip), vehicle: saline, higher = larger tumour) was 62 % of control; the T/C (endpoint: median tumor weight (est.), dose: 200.0 mg/kg/injection, schedule: Q07DX002 (ip), vehicle: water, higher = larger tumour) was 85 % of control. Further, the T/C was 76 % of control (endpoint: median tumor weight (est.), dose: 400.0 mg/kg/injection, schedule: Q07DX002 (ip), vehicle: saline, higher = larger tumour); 112 % of control (endpoint: median tumor weight (est.), dose: 400.0 mg/kg/injection, schedule: Q07DX002 (ip), vehicle: water, higher = larger tumour); 87 % of control (endpoint: median tumor weight (est.), dose: 800.0 mg/kg/injection, schedule: Q07DX002 (ip), vehicle: saline, higher = larger tumour); 83 % of control (endpoint: median tumor weight (est.), dose: 800.0 mg/kg/injection, schedule: Q07DX002 (ip), vehicle: water, higher = larger tumour); 98 % of control (endpoint: median tumor weight (est.), dose: 1600.0 mg/kg/injection, schedule: Q07DX002 (ip), vehicle: saline, higher = larger tumour); 106 % of control (endpoint: median tumor weight (est.), dose: 1600.0 mg/kg/injection, schedule: Q07DX002 (ip), vehicle: water, higher = larger tumour).

For the molecule `COC1=C(OC)C(=O)C(Sc2ccc3ccccc3c2)=CC1=O`, the T/C by setting is: (endpoint: median tumor weight (est.), dose: 6.25 mg/kg/injection, schedule: Q07DX002 (ip), vehicle: saline with Tween-80, higher = larger tumour) 86 % of control; under setting [7], 63 % of control; under setting [9], 90 % of control and 98 % of control; under setting [5], 87 % of control and 88 % of control; under setting [6], 74 % of control.

In the case of `CCCCOCN(COCCCC)C12CC3CC(CC(C3)C1)C2`, the T/C was 93 % of control under setting [8], 73 % of control under setting [9], 120 % of control under setting [5] and 69 % of control under setting [6].
